Test results: ChEMBL document CHEMBL4177675, “The synthesis of 2,3,6-trisubstituted 1-oxo-1,2-dihydroisoquinolines as potent CRTh2 antagonists” (Bioorg Med Chem Lett, 2017)
pKi: −log10 of the molar value.

target: T1, Prostaglandin D2 receptor 2 (Homo sapiens, UniProt Q9Y5Y4); assay: Antagonist activity at CRTh2 (unknown origin) assessed as inhibition of CD11b activation; format: functional
T1 sequence (Q9Y5Y4 whole entry): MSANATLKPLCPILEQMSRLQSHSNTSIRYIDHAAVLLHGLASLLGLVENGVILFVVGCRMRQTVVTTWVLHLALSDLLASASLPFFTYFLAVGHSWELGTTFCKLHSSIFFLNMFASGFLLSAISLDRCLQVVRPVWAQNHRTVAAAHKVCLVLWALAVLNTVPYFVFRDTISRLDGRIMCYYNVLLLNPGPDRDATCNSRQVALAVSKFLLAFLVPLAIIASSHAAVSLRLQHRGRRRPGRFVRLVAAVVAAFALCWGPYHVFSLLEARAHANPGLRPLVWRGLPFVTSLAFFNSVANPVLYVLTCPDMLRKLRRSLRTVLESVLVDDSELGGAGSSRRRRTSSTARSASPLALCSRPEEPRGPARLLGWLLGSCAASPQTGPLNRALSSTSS

| SMILES | pKi |
| --- | --- |
| O=C(O)CCCCc1cc2cc(C(=O)N[C@@H]3CCCc4ccccc43)ccc2c(=O)n1-c1ccc(F)cc1 | 9.40 |
| O=C(O)CCCCc1cc2cc(C(=O)N[C@@H]3CCCc4cc(F)ccc43)ccc2c(=O)n1-c1ccc(F)cc1 | 8.88 |
| C[C@@H](NC(=O)c1ccc2c(=O)n(-c3ccc(F)cc3)c(CCCCC(=O)O)cc2c1)c1ccc(F)cc1 | 9.64 |

target: T1, Prostaglandin D2 receptor 2; assay: Binding affinity to human CRTh2 assessed by competitive binding assay

| SMILES | pKi |
| --- | --- |
| COc1ccc(-n2c(CCCCC(=O)O)cc3cc(C(=O)N[C@H](C)c4ccc(F)cc4)ccc3c2=O)cc1 | 8.07 |
| O=C(O)CCCCc1cc2cc(C(=O)Nc3noc(Cc4ccc(F)cc4)n3)ccc2c(=O)n1-c1ccc(F)cc1 | 8.11 |
| C[C@@H]1CN(c2ccc(F)cc2)CCN1C(=O)c1ccc2c(=O)n(-c3ccc(F)cc3)c(CCCCC(=O)O)cc2c1 | 7.62 |
| C[C@@H](NC(=O)c1ccc2c(=O)[nH]c(CCCCC(=O)O)cc2c1)c1ccc(F)cc1 | 6.15 |
| O=C(O)CCCCc1cc2cc(C(=O)Nc3cc(Cc4ccc(F)cc4)on3)ccc2c(=O)n1-c1ccc(F)cc1 | 7.96 |
| O=C(O)CCCCc1cc2cc(C(=O)Nc3noc(C4Cc5ccccc5C4)n3)ccc2c(=O)n1-c1ccc(F)cc1 | 7.66 |
| CC(c1ccc(F)cc1)c1nc(NC(=O)c2ccc3c(=O)n(-c4ccc(F)cc4)c(CCCCC(=O)O)cc3c2)no1 (stereo not drawn) | 7.89 |
| C[C@@H](NC(=O)c1ccc2c(=O)n(-c3ccc(C#N)cc3)c(CCCCC(=O)O)cc2c1)c1ccc(F)cc1 | 8.04 |
| CC1(c2nc3ccc(F)cc3o2)CC(NC(=O)c2ccc3c(=O)n(-c4ccc(F)cc4)c(CCCCC(=O)O)cc3c2)=NO1 (stereo not drawn) | 7.59 |
| C[C@@H](NC(=O)c1ccc2c(=O)n(-c3ccc(F)cc3)c(CCCCC(=O)O)cc2c1)c1ccc(F)cc1 | 8.23 |
